In US20170052170A1, “NOVEL CELL LINES AND METHODS” (priority 2009, published 2017):

Biological target: T1, sweet taste receptor (human T1R2 and T1R3 subunits, mouse Gα15) (Homo sapiens, UniProt Q7RTX0+Q8TE23, C757R/I191V/I486V/R317G)
T1 construct: expressed in transfected cells; host or cells: HEK293T (ATCC CRL-11268)
T1 sequence (Q8TE23 20-839 I191V/R317G/I486V): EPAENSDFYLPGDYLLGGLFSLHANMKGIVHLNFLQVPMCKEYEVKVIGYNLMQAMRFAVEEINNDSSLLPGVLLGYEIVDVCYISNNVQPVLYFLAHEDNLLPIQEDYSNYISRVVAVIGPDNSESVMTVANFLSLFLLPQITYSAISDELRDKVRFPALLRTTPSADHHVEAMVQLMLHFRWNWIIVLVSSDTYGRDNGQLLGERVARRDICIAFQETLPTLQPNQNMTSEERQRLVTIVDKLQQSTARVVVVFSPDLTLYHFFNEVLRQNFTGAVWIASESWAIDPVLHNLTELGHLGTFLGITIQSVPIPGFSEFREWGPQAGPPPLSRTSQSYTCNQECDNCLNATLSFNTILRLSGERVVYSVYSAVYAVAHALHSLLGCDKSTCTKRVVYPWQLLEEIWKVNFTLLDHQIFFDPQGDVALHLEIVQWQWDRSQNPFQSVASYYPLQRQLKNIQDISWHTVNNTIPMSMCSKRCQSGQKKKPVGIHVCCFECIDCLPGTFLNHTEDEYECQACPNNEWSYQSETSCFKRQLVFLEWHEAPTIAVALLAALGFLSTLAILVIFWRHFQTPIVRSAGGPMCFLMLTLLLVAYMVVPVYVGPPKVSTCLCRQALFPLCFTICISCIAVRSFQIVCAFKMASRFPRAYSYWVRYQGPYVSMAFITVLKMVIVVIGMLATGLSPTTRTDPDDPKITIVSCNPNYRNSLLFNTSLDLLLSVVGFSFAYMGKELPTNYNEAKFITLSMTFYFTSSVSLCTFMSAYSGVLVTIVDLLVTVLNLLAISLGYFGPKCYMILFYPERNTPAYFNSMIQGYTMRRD
T1 sequence (Q7RTX0 21-852 C757R): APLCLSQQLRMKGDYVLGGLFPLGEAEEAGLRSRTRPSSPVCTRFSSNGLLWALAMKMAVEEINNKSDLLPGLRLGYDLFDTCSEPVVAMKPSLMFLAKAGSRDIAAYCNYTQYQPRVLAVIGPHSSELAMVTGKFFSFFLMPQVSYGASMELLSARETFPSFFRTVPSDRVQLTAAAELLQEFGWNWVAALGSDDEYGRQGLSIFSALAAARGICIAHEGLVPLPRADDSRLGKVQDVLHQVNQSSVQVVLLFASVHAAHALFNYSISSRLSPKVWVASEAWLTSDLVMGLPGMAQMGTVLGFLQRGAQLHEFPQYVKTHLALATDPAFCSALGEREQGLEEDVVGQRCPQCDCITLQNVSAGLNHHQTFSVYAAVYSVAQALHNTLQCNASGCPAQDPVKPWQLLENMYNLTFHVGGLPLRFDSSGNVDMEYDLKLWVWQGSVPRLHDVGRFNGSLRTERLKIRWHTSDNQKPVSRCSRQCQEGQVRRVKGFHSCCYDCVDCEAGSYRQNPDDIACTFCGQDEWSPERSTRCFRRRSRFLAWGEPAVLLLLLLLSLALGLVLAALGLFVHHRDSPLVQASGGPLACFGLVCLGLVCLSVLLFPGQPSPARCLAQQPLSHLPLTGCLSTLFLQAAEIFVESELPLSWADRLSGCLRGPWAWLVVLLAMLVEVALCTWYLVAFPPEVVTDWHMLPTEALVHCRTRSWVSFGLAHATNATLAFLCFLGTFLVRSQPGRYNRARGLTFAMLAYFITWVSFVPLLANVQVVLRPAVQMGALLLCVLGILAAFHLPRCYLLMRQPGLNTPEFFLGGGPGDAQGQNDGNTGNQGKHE
Assay: sweet taste receptor-expressing cell-based assay (calcium flux)
Details: natural, high intensity and artificial sweeteners; FIGS. 23 and 24
Source text: FIG. 24 (A-C) is series of line graphs representing the data obtained in various dose response experiments using sweet taste receptor agonists in a sweet taste receptor-expressing cell-based assay (using cells of this invention). (A) The responses of a sweet taste receptor-expressing cell line to natural caloric sweeteners were plotted as a function of the agonist concentration. (B) Dose response curves of common artificial sweeteners in a sweet taste receptor-expressing cell-based assay. (C) Dose response curves of natural high-intensity sweeteners in a sweet taste receptor-expressing cell-based assay.
FIG. 25 is a series of representative response traces generated after performing a sweet taste receptor-expressing cell-based assay using cells of this invention.
To identify a taste receptor modulator (e.g., umami taste receptor modulator or sweet taste receptor modulator), one exposes a cell or cell line of the invention to a test compound under conditions in which the taste receptor (e.g., umami taste receptor or sweet taste receptor) would be expected to be functional and then detects a statistically significant change (e.g., p<0.05) in taste receptor activity (e.g., umami taste receptor activity or sweet taste receptor activity) compared to a suitable control, e.g., cells that are not exposed to the test compound. Positive and/or negative controls using known agonists or antagonists and/or cells expressing different combinations of taste receptor subunits (e.g., umami taste receptor subunits or sweet taste receptor subunits) (and optionally a G protein) may also be used. In some embodiments, the taste receptor activity (e.g., umami taste receptor activity or sweet taste receptor activity) to be detected and/or measured is calcium release from the endoplasmic reticulum as a result of the down stream signaling events following taste receptor activation (e.g., umami taste receptor activation or sweet taste receptor activation). One of ordinary skill in the art would understand that various assay parameters may be optimized, e.g., signal to noise ratio.
See, e.g., FIGS. 23 and 24.

O=C(CO)[C@@H](O)[C@H](O)[C@H](O)CO [fructose]
response of sweet taste receptor cells and cell lines to known classes of sweet compounds: respond
